Experiments:
Assay type in all cases: binding
[1] = system: murine anti-PDC monoclonal antibody 2H4; test: xenobiotic-peptide-agarose microarray, reactivity of mAb 2H4; settings: xenobiotic or lipoic acid coupled to PDC peptide-agarose
Source text: Synthesis of mimeotopes and coupling with peptide-agarose conjugate. Carboxylic acid derivatives of twenty-three xenobiotic compounds were used in this study. Compounds 1-19 were synthesized as described in Long, S. A. et al. J. Immunol. 2001, 167:2956 which is herein incorporated by reference in its entirety. The carboxylic acid derivatives are then reacted with NHS to form the corresponding NHS esters. These 23 compounds, in addition to lipoic acid with NHS ester, were coupled to the lysine residue on the PDC-E2 peptide-agarose conjugate as follows. Briefly, 0.4 mg of the PDC-E2 peptide-agarose conjugate and 10 μmol of each of the NHS esters were mixed in 40 μl of DMSO. Mixtures were incubated at room temperature for 2 hours. To ensure complete coupling, a quantitative ninhydrin test at 570 nm was performed.
(§1) Preparation of microarray and analysis of immunoreactivity. Xenobiotic compounds-peptide-agarose mixture were diluted (0.1%) in 0.1 M Na2CO3/NaHCO3 buffer (p)H 9.0), and transferred to 96 well plates. Thereafter mixtures were spotted onto glass slides (Mercedes Medical, Florida) using the Affymetrix 417 Microarrayer (Affymetrix, Santa Clara, Calif.). Each sample was spotted in triplicate, with a spot size of 150 μm in diameter. Spotted microarrays were stored at 4° C. until use. Before use, microarrays were blocked with 3% non-fat dry milk in PBS buffer for 1 hour at room temperature, and individual slides were thereafter incubated with diluted antibody samples (rabbit sera 1:250, murine anti-PDC monoclonal antibody 1:1) in 1 ml of blocking buffer (3% non-fat dry milk in PBS with 0.05% tween-20) (PBST) for 1 hour at room temperature. After thorough washes with PBST, 1 ml of the Cy3 conjugated secondary antibody (1 μg/ml) (Zymed Laboratories Inc. San Francisco, Calif.) in blocking buffer was added to each slide and incubated at room temperature for 30 min. Subsequently slides were washed in PBST for 10 min and in water for 15 sec. […] Mixtures of xenobiotics and agarose were also spotted and analyzed as controls. […]

rabbit sera IgG [2] = test: microarray assay of rabbit sera IgG reactivity to small molecule-peptide-agarose conjugates; settings: sera (n=5) one month post-immunization, serially diluted; dilution of 1:6750 or lower; on PDC-E2 peptide
Procedure: as §1, with “min.” for “min. Subsequently slides were washed in PBST for 10 min and in water for 15 sec.”
Comparison between ELISA and microarray assay. Rabbit sera (n=5) at one month post-immunization were serially diluted (1:250, 1:750, 1:2250, 1:6750 and 1:20250) and IgG reactivity to small molecule-peptide-agarose conjugates were determined by both the ELISA and microarray assay. […] Likewise, IgG reactivity of rabbit sera at 0, 1, 6, 12 and 22 months post-immunization against recombinant human PDC-E2 protein (see Leung, P. S. et al. J. Immunol. 2003, 170:5326) and KLH (Sigma, St. Louis, Mo.) was determined at 1:100 sera dilution by standard ELISA.
Validation of peptide microarray assay. […] Rabbit sera (n=5) at one month post-immunization with human recombinant PDC-E2 were serially diluted and their IgG reactivity against 6-bromohexanoate, compound 9, lipoic acid on PDC-E2 peptide and non-lipoylated native PDC-E2 peptide were determined by both ELISA and microarray assay (FIG. 13). […]

rabbit sera IgG [3] = test: ELISA of rabbit sera IgG reactivity to small molecule-peptide-agarose conjugates; settings: sera (n=5) one month post-immunization, serially diluted; dilution of 1:6750 or lower; on PDC-E2 peptide
Procedure: Comparison between ELISA and microarray assay. Rabbit sera (n=5) at one month post-immunization were serially diluted (1:250, 1:750, 1:2250, 1:6750 and 1:20250) and IgG reactivity to small molecule-peptide-agarose conjugates were determined by both the ELISA and microarray assay. Briefly, ELISA plates were coated with 50 μl of each individual xenobiotic compounds-peptide-agarose mixture in DMSO (1 mg/ml) for 2 hours at room temperature, then antigens were removed and plates dried overnight at room temperature. Dried ELISA plates were thereafter blocked with 3% non-fat dry milk in PBS and incubated with serially diluted rabbit sera for 1 hour at room temperature. After washing, the plates were incubated with HRP conjugated mouse anti-rabbit IgG (Zymed, San Francisco, Calif.) antibodies for 30 min at room temperature, washed and incubated with 2,2′-azino-bis(3-ethylbenzthiazoline-6-sulfonic acid) containing hydrogen peroxide (Kirkegaard & Perry Laboratories, Inc, MD). Likewise, IgG reactivity of rabbit sera at 0, 1, 6, 12 and 22 months post-immunization against recombinant human PDC-E2 protein (see Leung, P. S. et al. J. Immunol. 2003, 170:5326) and KLH (Sigma, St. Louis, Mo.) was determined at 1:100 sera dilution by standard ELISA.
Validation of peptide microarray assay. To validate the microarray assay, data obtained using the microarray and ELISA were compared. Rabbit sera (n=5) at one month post-immunization with human recombinant PDC-E2 were serially diluted and their IgG reactivity against 6-bromohexanoate, compound 9, lipoic acid on PDC-E2 peptide and non-lipoylated native PDC-E2 peptide were determined by both ELISA and microarray assay (FIG. 13). […] To validate the sensitivity of the microarray, four different concentrations (0.1%, 0.03%, 0.01% and 0.004%) of HA peptide ([…]) were spotted. Individual arrays were incubated with murine monoclonal anti-HA antibody or normal murine IgG followed by secondary antibody (goat anti-murine IgG) conjugated to Cy3.

[4] = system: murine monoclonal anti-HA antibody; test: HA peptide microarray sensitivity validation with anti-HA monoclonal antibody

Row | Compound | reactivity of mAb 2H4 [1] | rabbit sera IgG reactivity, microarray assay (rabbit sera IgG [2]) | rabbit sera IgG reactivity, ELISA (rabbit sera IgG [3]) | anti-HA antibody concentration giving dose dependent response ([4]; HA peptide spotted at 0.1%, 0.03%, 0.01%) [ng/mL] | anti-HA antibody concentration required ([4]; lowest concentration of HA (0.004%)) [ng/mL]
1 | O=C(O)CCCC[C@@H]1CCSS1 (racemic) [lipoic acid] | bound strongly | dilution dependent response | dilution dependent response | – | –
2 | O=C(O)CCCCCBr [6-bromohexanoate] | bound strongly | dilution dependent response | dilution dependent response | – | –
3 | DKATIGFEVQEE [non-lipoylated native PDC peptide, 12 mer PDC-E2 peptide on agarose, without xenobiotic or lipoic acid] | Weak reactivity | dilution dependent response | dilution dependent response | – | –
4 | YPYDVPDYA [HA peptide] | – | – | – | ≥ 5 | > 50
